Experimental data taken from patent US5663162A, “Cephem derivatives” (priority 1993, dated 1997).
≈ marks a conversion by molar mass, not a printed value. Read-outs that look alike come from different tables or passages of the source.

Experiments:
Assay in all cases: Antibacterial activity test, MIC by two-fold dilution method
S. Aureus 133 = assay type: cell-based, Staphylococcus aureus (methicillin-resistant, MRSA); settings: Staphylococcus aureus, read-out: Minimum Inhibition Concentration
Description: (§1) The measurement was carried out in the following manner: 10^6 CFU/ml of a bacterium to be tested was inoculated on a Medium N for disc susceptibility test (manufactured by Nissui Pharmaceutical Co., Ltd.), and cultivated at 35° C. for 18 to 20 hours.

S. Aureus 126 = assay type: cell-based, Staphylococcus aureus (methicillin-resistant, MRSA); settings: Staphylococcus aureus, read-out: Minimum Inhibition Concentration
Description: as §1

P. aeruginosa GN10362 = assay type: cell-based; settings: Pseudomonas aeruginosa
Description: as §1

E. coli NIHJ JC-2 = assay type: cell-based; settings: Escherichia coli
Description: as §1

E. cloacae G-0008 = assay type: cell-based; settings: Enterobacter cloacae
Description: as §1

P. vulgaris GN76 = assay type: cell-based; settings: Proteus vulgaris
Description: as §1

C. freundii GN346/16 = assay type: cell-based; settings: Citrobacter freundii
Description: as §1

K. pneumoniae PC1602 = assay type: cell-based; settings: Klebsiella pneumoniae
Description: as §1

S. Aureus 209P JC-1 = assay type: cell-based; settings: Staphylococcus aureus, read-out: Minimum Inhibition Concentration
Description: as §1

S. epidermidis ATCC14990 = assay type: cell-based; settings: Staphylococcus epidermidis
Description: as §1

S. marcescens No. 1 = assay type: cell-based; settings: Serratia marcescens
Description: as §1

M. morganii 1510/S-1 = assay type: cell-based; settings: Morganella morganii
Description: as §1

P. aeruginosa E-2 = assay type: cell-based; settings: Pseudomonas aeruginosa
Description: as §1

[1] = S. Aureus 133 (MRSA), 10^6 CFU/ml, 35° C., 18 to 20 hours
[2] = S. Aureus 126 (MRSA), 10^6 CFU/ml, 35° C., 18 to 20 hours
[3] = GN10362, read-out: Minimum Inhibition Concentration
[4] = NIHJJC2, E. coli NIHJ JC-2, 10^6 CFU/ml, 35° C., 18 to 20 hours, read-out: Minimum Inhibition Concentration
[5] = G0008, E. cloacae G-0008, 10^6 CFU/ml, 35° C., 18 to 20 hours, read-out: Minimum Inhibition Concentration
[6] = GN76, read-out: Minimum Inhibition Concentration
[7] = C. freundii GN346/16, 10^6 CFU/ml, 35° C., 18 to 20 hours, read-out: Minimum Inhibition Concentration
[8] = K. pneumoniae PC1602, 10^6 CFU/ml, 35° C., 18 to 20 hours, read-out: Minimum Inhibition Concentration
[9] = ATCC14990, read-out: Minimum Inhibition Concentration
[10] = S. marcescens No. 1, 10^6 CFU/ml, 35° C., 18 to 20 hours, read-out: Minimum Inhibition Concentration
[11] = 1510/S1, M. morganii 1510/S-1, 10^6 CFU/ml, 35° C., 18 to 20 hours, read-out: Minimum Inhibition Concentration
[12] = E2, P. aeruginosa E-2, 10^6 CFU/ml, 35° C., 18 to 20 hours, read-out: Minimum Inhibition Concentration
[13] = P. aeruginosa GN10362, 10^6 CFU/ml, 35° C., 18 to 20 hours, read-out: Minimum Inhibition Concentration
[14] = S. Aureus 209P JC-1, 10^6 CFU/ml, 35° C., 18 to 20 hours
[15] = S. epidermidis ATCC14990, 10^6 CFU/ml, 35° C., 18 to 20 hours, read-out: Minimum Inhibition Concentration
[16] = P. vulgaris GN76, 10^6 CFU/ml, 35° C., 18 to 20 hours, read-out: Minimum Inhibition Concentration
[17] = E2, read-out: Minimum Inhibition Concentration
[18] = GN346, read-out: Minimum Inhibition Concentration
[19] = NO.1, read-out: Minimum Inhibition Concentration
[20] = 1510/S1, read-out: Minimum Inhibition Concentration

| SMILES | MIC (S. Aureus 133; [1]) [µg/mL] | MIC (S. Aureus 126; [2]) [µg/mL] | MIC (P. aeruginosa GN10362; [3]) [µg/mL] | MIC (E. coli NIHJ JC-2; [4]) [µg/mL] | MIC (E. cloacae G-0008; [5]) [µg/mL] | MIC (P. vulgaris GN76; [6]) [µg/mL] | MIC (C. freundii GN346/16; [7]) [µg/mL] | MIC (K. pneumoniae PC1602; [8]) [µg/mL] | MIC (S. Aureus 209P JC-1; 209P) [µg/mL] | MIC (S. epidermidis ATCC14990; [9]) [µg/mL] | MIC (S. marcescens No. 1; [10]) [µg/mL] | MIC (M. morganii 1510/S-1; [11]) [µg/mL] | MIC (P. aeruginosa E-2; [12]) [µg/mL] | MIC (S. Aureus 133; MRSA) [µg/mL] | MIC (P. aeruginosa GN10362; [13]) [µg/mL] | MIC (S. Aureus 209P JC-1; [14]) [µg/mL] | MIC (S. epidermidis ATCC14990; [15]) [µg/mL] | MIC (P. vulgaris GN76; [16]) [µg/mL] | further results |
| --- | --- | --- | --- | --- | --- | --- | --- | --- | --- | --- | --- | --- | --- | --- | --- | --- | --- | --- | --- |
| CO/N=C(\C(=O)N[C@@H]1C(=O)N2C(C(=O)[O-])=C(C[n+]3cc4sccn4c3)CS[C@H]12)c1nsc(N)n1 [Example 30, (6R,7R)-7-[(Z)-2-(5-Amino-1,2,4-thiadiazol-3-yl)-2-methoxyiminoacetamide]-3-(imidazo [5, l-b]thiazolium-6-yl)methyl-3-cephem-4-carboxylate] | 12.5 (≈ 24 µM) | 25 (≈ 48 µM) | 1.56 (≈ 3 µM) | 0.05 (≈ 0.096 µM) | 0.05 (≈ 0.096 µM) | 0.39 (≈ 0.749 µM) | 0.1 (≈ 0.192 µM) | 0.05 (≈ 0.096 µM) | 0.39 (≈ 0.749 µM) | 0.39 (≈ 0.749 µM) | 0.05 (≈ 0.096 µM) | 0.1 (≈ 0.192 µM) | 3.13 (≈ 6.01 µM) |  |  |  |  |  |  |
| CO/N=C(\C(=O)N[C@@H]1C(=O)N2C(C(=O)[O-])=C(C[n+]3cc4sccn4c3CO)CS[C@H]12)c1nsc(N)n1 [Example 31] |  | 12.5 (≈ 22.7 µM) |  | ≤ 0.025 | 0.05 (≈ 0.0908 µM) | 0.39 (≈ 0.708 µM) | 0.1 (≈ 0.182 µM) | 0.05 (≈ 0.0908 µM) |  |  | 0.05 (≈ 0.0908 µM) | 0.05 (≈ 0.0908 µM) | 3.13 (≈ 5.68 µM) | 6.25 (≈ 11.4 µM) | 3.13 (≈ 5.68 µM) | 0.78 (≈ 1.42 µM) | 0.78 (≈ 1.42 µM) |  |  |
| CO/N=C(\C(=O)N[C@@H]1C(=O)N2C(C(=O)[O-])=C(C[n+]3cc4scc(C(N)=O)n4c3)CS[C@H]12)c1nsc(N)n1 [Example 44, (6R,7R)-7-[(Z)-2-(5-Amino-1,2,4-thiadiazol-3-yl)-2-methoxyiminoacetamide]-3-(3-carbamoylimidazo[5,1-b]thiazolium-6-yl)methyl-3-cephem-4-carboxylate] | 12.5 (≈ 22.2 µM) | 25 (≈ 44.4 µM) | 1.56 (≈ 2.77 µM) | ≤ 0.025 | 0.05 (≈ 0.0887 µM) |  | 0.1 (≈ 0.177 µM) | ≤ 0.025 |  |  | 0.05 (≈ 0.0887 µM) | 0.05 (≈ 0.0887 µM) |  |  |  | 0.78 (≈ 1.38 µM) | 0.78 (≈ 1.38 µM) | 0.2 (≈ 0.355 µM) | MIC (P. aeruginosa E-2; [17]): 1.56 µg/mL (≈ 2.77 µM) |
| Nc1nc(/C(=N/OCF)C(=O)N[C@@H]2C(=O)N3C(C(=O)[O-])=C(C[n+]4cc5sccn5c4[C@H](CO)NC=O)CS[C@H]23)ns1 [Example 164, (6R,7R)-7-[(Z)-2-(5-amino-1,2,4-thiadiazol-3-yl)-2-fluoromethoxyiminoacetamido]-3-[5-((R)-1-formylamino-2-hydroxyethyl]imidazo[5,1-b]thiazolium-6-yl)methyl-3-cephem-4-carboxylate] |  |  |  | ≤ 0.025 | 0.05 (≈ 0.0799 µM) |  | ≤ 0.025 | ≤ 0.025 |  |  | ≤ 0.025 | ≤ 0.025 | 0.78 (≈ 1.25 µM) | 6.25 (≈ 9.99 µM) | 0.78 (≈ 1.25 µM) | 0.78 (≈ 1.25 µM) | 0.78 (≈ 1.25 µM) | 0.2 (≈ 0.32 µM) | MIC (S. Aureus 126; MRSA): 6.25 µg/mL (≈ 9.99 µM) |
| Nc1nc(/C(=N/OCCF)C(=O)N[C@@H]2C(=O)N3C(C(=O)[O-])=C(C[n+]4cc5sccn5c4)CS[C@H]23)ns1 [Example 133, (6R,7R)-7-[(Z)-2-(5-Amino-1,2,4-thiadiazol-3-yl)-2-(2-fluoroethoxyimino)acetamide]3-cephem-4-carboxylate] |  | 12.5 (≈ 22.6 µM) |  | ≤ 0.025 | ≤ 0.025 |  | 0.1 (≈ 0.181 µM) | ≤ 0.025 | 0.39 (≈ 0.706 µM) | 0.39 (≈ 0.706 µM) | ≤ 0.025 | ≤ 0.025 | 0.78 (≈ 1.41 µM) | 6.25 (≈ 11.3 µM) | 0.78 (≈ 1.41 µM) |  |  | 0.2 (≈ 0.362 µM) |  |
| CC(C)(O/N=C(\C(=O)N[C@@H]1C(=O)N2C(C(=O)[O-])=C(C[n+]3ccccc3)CS[C@H]12)c1csc(N)n1)C(=O)O [CAZ, Ceftazidime, reference compound] | 100 (≈ 183 µM) | > 100 | 1.56 (≈ 2.85 µM) |  |  | 0.05 (≈ 0.0915 µM) |  |  | 6.25 (≈ 11.4 µM) | 6.25 (≈ 11.4 µM) |  |  |  |  |  |  |  |  | MIC (E. coli NIHJ JC-2; NIHJJC2, read-out: Minimum Inhibition Concentration): 0.39 µg/mL (≈ 0.714 µM); MIC (E. cloacae G-0008; G0008, read-out: Minimum Inhibition Concentration): 0.2 µg/mL (≈ 0.366 µM); MIC (C. freundii GN346/16; [18]): 0.39 µg/mL (≈ 0.714 µM); MIC (K. pneumoniae PC1602; PC1602, read-out: Minimum Inhibition Concentration): 0.1 µg/mL (≈ 0.183 µM); MIC (S. marcescens No. 1; [19]): 0.05 µg/mL (≈ 0.0915 µM); MIC (M. morganii 1510/S-1; [20]): 0.2 µg/mL (≈ 0.366 µM); MIC (P. aeruginosa E-2; [17]): 1.56 µg/mL (≈ 2.85 µM) |
| C[C@H](O/N=C(\C(=O)N[C@@H]1C(=O)N2C(C(=O)[O-])=C(C[n+]3cc4sccn4c3)CS[C@H]12)c1csc(N)n1)C(=O)O [Example 2, (6R,7R)-7-[(Z)-2-(2-Aminothiazol-4-yl)-2-((S)-l-carboxyethoxy-imino)acetamide]-3-(imidazo[5,1-b]thiazolium-6-yl)methyl-3-cephem-4-carboxylate] | 100 (≈ 173 µM) | > 100 |  | 0.05 (≈ 0.0866 µM) | 0.05 (≈ 0.0866 µM) |  |  | ≤ 0.025 | 6.25 (≈ 10.8 µM) | 6.25 (≈ 10.8 µM) | ≤ 0.025 | ≤ 0.025 | 0.78 (≈ 1.35 µM) |  | 0.78 (≈ 1.35 µM) |  |  | ≤ 0.025 | MIC (C. freundii GN346/16; [18]): 0.39 µg/mL (≈ 0.675 µM) |
| Nc1nc(/C(=N/OC2CCCC2)C(=O)N[C@@H]2C(=O)N3C(C(=O)[O-])=C(C[n+]4cc5sccn5c4)CS[C@H]23)ns1 [Example 112, (6R,7R)-7-[(Z)-2-(5-Amino-1,2,4-thiadiazol-3-yl)-2-cyclopentyl-oxyiminoacetamide]-3-(imidazo[5,1-b]thiazolium-6-yl)methyl-3-cephem-4-carboxylate] | 3.13 (≈ 5.45 µM) | 3.13 (≈ 5.45 µM) |  | 0.78 (≈ 1.36 µM) | 0.78 (≈ 1.36 µM) |  | 0.78 (≈ 1.36 µM) | 0.78 (≈ 1.36 µM) | 0.39 (≈ 0.679 µM) |  |  |  | 3.13 (≈ 5.45 µM) |  | 3.13 (≈ 5.45 µM) |  | 0.2 (≈ 0.348 µM) | 3.13 (≈ 5.45 µM) | MIC (S. marcescens No. 1; [19]): 1.56 µg/mL (≈ 2.71 µM); MIC (M. morganii 1510/S-1; [20]): 0.39 µg/mL (≈ 0.679 µM) |
| NC(=O)c1csc2c[n+](CC3=C(C(=O)[O-])N4C(=O)[C@@H](NC(=O)/C(=N\OCCF)c5nsc(N)n5)[C@H]4SC3)cn12 [Example 48, (6R,7R)-7-[(Z)-2-(5-Amino-2,4-thiadiazol-3-yl)-2-(2-fluoroethoxyimino)acetamide]-3-(3-carbamoylimidazo[5,1-b]thiazolium-6-yl)methyl-3-cephem-4-carboxylate] |  | 12.5 (≈ 21 µM) |  | ≤ 0.025 | ≤ 0.025 |  | 0.1 (≈ 0.168 µM) | ≤ 0.025 | 0.39 (≈ 0.655 µM) | 0.39 (≈ 0.655 µM) | ≤ 0.025 | ≤ 0.025 | 0.78 (≈ 1.31 µM) | 6.25 (≈ 10.5 µM) | 0.78 (≈ 1.31 µM) |  |  | 0.2 (≈ 0.336 µM) |  |
| CO/N=C(\C(=O)N[C@@H]1C(=O)N2C(C(=O)[O-])=C(C[n+]3cccc4c3CCC4)CS[C@H]12)c1csc(N)n1 [CPR, Cefpirome, reference compound] |  | 50 (≈ 97.2 µM) |  | 0.05 (≈ 0.0972 µM) | 0.05 (≈ 0.0972 µM) |  | 0.05 (≈ 0.0972 µM) | 0.05 (≈ 0.0972 µM) |  | 0.39 (≈ 0.758 µM) | ≤ 0.025 | ≤ 0.025 | 3.13 (≈ 6.08 µM) | 6.25 (≈ 12.1 µM) | 3.13 (≈ 6.08 µM) | 0.2 (≈ 0.389 µM) |  | 0.2 (≈ 0.389 µM) |  |
